The source of these data is publication PMC6255697, “The major nectar protein of Brassica rapa is a non-specific lipid transfer protein, BrLTP2.1, with strong antifungal activity” (Journal of Experimental Botany, 2018).

Each structure is given as a SMILES string.

Assay [1] has as its target T1, BrLTP2.1 (Brassica rapa, UniProt A0A8D9LMK4).
T1 construct: gene BRAPAZ1V2_A03P14030.2; predicted mature protein, residues 27-98 of 98 (signal peptide removed), amplified from genomic DNA; N-terminal T7-tag and C-terminal His6 kept; pET21a(+) in E. coli SHuffle T7 Express lysY
The experiment in a line: TNS displacement fluorescence; protein lipid overlay. The assay is classed as binding. To be noted: 2.5 uM protein and 2.5 uM TNS, ligand 0-10 uM, pH 7.0; competitive with TNS.

In assay [2] the target is T1, BrLTP2.1. The experiment in a line: TNS displacement fluorescence. The assay is classed as binding. To be noted: 2.5 uM protein and 2.5 uM TNS, ligand 0-10 uM, pH 7.0; competitive with TNS.

T1 sequence (A0A8D9LMK4 entry or part of it): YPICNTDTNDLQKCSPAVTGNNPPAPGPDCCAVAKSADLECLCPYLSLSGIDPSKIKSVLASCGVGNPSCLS

As to `CCCCCCCCCCCCCCCCCC(=O)O` [stearic acid], the “TNS displacement fluorescence; protein lipid overlay” value in assay [1] is on record as “Each of the three free fatty acids tested strongly reduced TNS-dependent fluorescence”.
Take `CCCCCCCCCCCCCCCC(=O)O` [palmitic acid]: in assay [2], the TNS displacement fluorescence entry is reported as “Each of the three free fatty acids tested strongly reduced TNS-dependent fluorescence”.
